# Measurements: US8124655B2, “Use of LR-90 and LR-102 to overcome insulin resistance” (City of Hope, priority 2007, dated 2012)
# Legend:
# [1] = tested on: TGF-β1, CTGF, fibronectin and collagen IV; test: Renal TGF-β1, CTGF and ECM proteins by RT-PCR, western blot and immunostaining; type: in vivo, rat
# Excerpt: Tissue sections were deparaffinised by sequential exposure to xylene and ethanol, dehydrated and then exposed to H2O2 to eliminate endogenous peroxidase activity. The kidney sections were then blocked with 2% (wt/vol.) BSA and exposed to specific antibodies against AGE, AGER, TGF-β1, CTGF, fibronectin and collagen type IV. Biotinylated anti-rabbit or anti-mouse IgG was then applied as a secondary antibody, followed by horseradish peroxidase conjugated streptavidin. The staining was visualised by reaction with 3,3′-diaminobenzidine tetrahydrochloride and then counterstained with haematoxylin. All the sections were examined by light microscopy (Olympus AX70) and photographed with Retiga 2000R camera.
# (§1) Renal cortical tissues were homogenised in PBS buffer with 1% (vol./vol.) Nonidet P-40, 0.5% (wt/vol.) sodium deoxycholate, 0.1% (wt/vol.) SDS and protease inhibitor mixture (Roche, Indianapolis, Ind., USA). Homogenates were centrifuged for 15 min at 4° C. and at 12,000 rpm and the supernatant fractions collected and stored at −70° C. Nuclear extracts were prepared as described previously. Protein concentrations were measured using the Bio-Rad DC Assay kit. Total RNA was isolated using the RNA-STAT-60 reagent (Tel-Test, Friendswood, Tex., USA). Western blot assay Protein samples (50 μg) were separated on 10 to 20% gradient Tris-glycine Criterion gels (Bio-Rad) and then transferred to nitrocellulose membranes. The membranes were blocked with 5% (wt/vol.) skimmed milk in PBS before incubation with anti-TGF-β1, anti-CTGF, anti-AGER, anti-phospho-p38 MAPK, anti-phospho-p44/42 MAPK and anti-p65 NF-κB antibodies. Immunoreactive proteins were detected by enhanced chemiluminescence (Western Lightning Chemiluminescence Reagent; Perkin-Elmer, Waltham, Mass., USA) using horseradish peroxidase-labelled secondary antibodies. Equal amounts of protein loading were confirmed by restaining the membranes with antibodies against β-actin, p38 MAPK or p44/42 MAPK for cytosolic extracts or with histone H2B for nuclear extracts. Band intensities were quantified using a densitometer (Quantity One, Bio-Rad). Reverse transcriptase-polymerase chain reaction Total RNA (1 μg) was used for the RT reaction using the GeneAmp RNA PCR kit (Applied Biosystems, Foster City, Calif., USA). Total cDNA was then used in PCR reactions containing gene specific primers [Electronic supplementary material (ESM) Table 1] paired with Quantum 18S rRNA internal standards (Ambion, Austin, Tex., USA). Multiplex PCR reactions were performed in a GeneAmp 9700 (Applied Biosystems). […] The densities of amplified products corresponding to specific genes and 18S rRNA were quantified with Quantity One software (Bio-Rad). Results are expressed as the means of the ratios of Tgfb1, Ctgf or Ager band densities to the 18S rRNA band density.
# [2] = tested on: p38 MAPK, p44/42 MAPK, p65 subunit of NF-κB; test: Renal MAPKs and NF-κB activation by western blot; type: in vivo, rat
# Protocol: as §1
# [3] = tested on: 3T3 adipocytes; test: FFA uptake and glucose uptake in 3T3 adipocytes; type: cell-based; settings: FIG. 14
# Excerpt: FIG. 14. Effect of LR-90 on 3T3 adipocytes. Tissue culture data on 3T3 adipocytes, showing free fatty acid (FFA) uptake and glucose uptake improvements upon contact with LR-90.
# The present Example, with reference to FIG. 14, provides tissue culture data on 3T3 adipocytes, showing free fatty acid (FFA) uptake and glucose uptake improvements upon contact with LR-90.
# [4] = tested on: Zucker diabetic fatty (ZDF) rat; test: Metabolic parameters of ZDF rats treated with LR-90 (Example 1); type: in vivo
# Protocol: As noted, previous studies have shown that LR-90, a new inhibitor of AGE formation, prevented the development of experimental type 1 diabetic nephropathy. In the present Example, the effects of LR-90 were examined in the Zucker diabetic fatty (ZDF) rat, a model of type 2 diabetes and metabolic syndrome, and the mechanisms by which it may protect against renal injury were investigated. In this Example, male ZDF rats were treated without or with LR-90 from age 13 to 40 weeks. Metabolic and kidney functions and renal histology were evaluated. AGE accumulation and the production of the receptor for AGE (AGER) were measured. Profibrotic growth factors, extracellular matrix proteins and intracellular signalling pathways associated with glomerular and tubular damage were also analysed. […] RenalAGE, AGER and lipid peroxidation were all attenuated by LR-90. […] This was associated with reduction in glomerulosclerosis and tubulointerstitial fibrosis, concomitant with marked inhibition of renal overproduction of TGF-β1, connective tissue growth factor, fibronectin and collagen IV.
# All animal studies were carried out in compliance with policies outlined in The Guide for the Care and Handling of Laboratory Animals (NIH Publication No. 85-23) that have been approved by the City of Hope Animal Care Committee. Male ZDF (fa/fa) and male Zucker lean (+/+; ZL) rats were obtained at the age of 5 weeks from Charles River Laboratories (Wilmington, Mass., USA). Animals were maintained with free access to Purina 5008 rat chow (Purina Mills, St Louis, Mo., USA) and tap water. All animals were individually housed in a controlled room with a 12 h dark-light cycle. At the age of 13 weeks, the animals were divided into the following groups: (1) ZL rats (n=6); (2) ZDF rats without treatment (n=6); and (3) ZDF rats treated with LR-90 at 50 mg/l in their drinking water (ZDF90, n=6). The dose of LR-90 was chosen after previous experiments with type 1 diabetic nephropathy. Food, water intake, body weight and blood glucose levels were monitored periodically. Systolic blood pressure was measured by tail-cuff plethysmography (CODA2 Blood Pressure System; Kent Scientific, Torrington, Conn., USA). Animals were killed at the age of 40 weeks by over-anaesthetisation with isoflurane and cardiac puncture. Blood samples were collected from each animal and transferred accordingly into heparinised vacutainer tubes; they were later centrifuged (1,500×g for 10 min at 4° C.) for plasma isolation. The kidneys were removed immediately, rinsed in PBS and weighed, after which specimens were snap-frozen in liquid nitrogen or fixed in 10% (vol./vol.) neutral buffered formalin for further biochemical and histological analyses. Plasma glucose, lipids and Nε-(carboxymethyl)lysine-AGE Plasma glucose was measured using a glucose analyzer (2300 STAT; YSI, Yellowsprings, Ohio, USA). Total plasma triacylglycerol and cholesterol concentrations were quantified using the Vitros 250 Chemistry System (Johnson & Johnson, Rochester, N.Y., USA). Nε-(Carboxymethyl)lysine (CML)-AGE was liberated from plasma proteins by acid hydrolysis and then measured by ion-pair reversed-phase liquid chromatography/tandem mass spectrometry as described previously.
# [5] = kidneys of ZDF rats, to almost similar levels as in ZL rats
# [6] = ZDF rats, LR-90 50 mg/l in drinking water, at 40 weeks of age, mean ± SEM
compound,measurement,setting,value
"CC(C)(Oc1ccc(NC(=O)Nc2ccc(Cc3ccc(NC(=O)Nc4ccc(OC(C)(C)C(=O)O)cc4)c(Cl)c3)cc2Cl)cc1)C(=O)O [LR-90, methylene bis[4,4′-(2-chlorophenylureidophenoxyisobutyric acid)]]",mRNA expression and protein production of CTGF,[1]; kidneys of ZDF animals,significantly attenuated
same,mRNA expression and protein production of TGF-β1,[1]; kidneys of ZDF animals,significantly attenuated
same,positive immunostaining for collagen IV,[1]; [5],markedly reduced
same,positive immunostaining for fibronectin,[1]; [5],markedly reduced
same,activation of NF-κB (p65 subunit),"[2]; kidney nuclear extracts of ZDF rats, p<0.01",significantly attenuated
same,activation of p44/42 MAPK,"[2]; renal cortex of ZDF rats, p<0.01",significantly attenuated
same,activation of p38 MAPK,"[2]; renal cortex of ZDF rats, p<0.05",significantly attenuated
same,free fatty acid (FFA) uptake,[3],improvements
same,glucose uptake,[3],improvements
same,effect on blood pressure,"[4]; ZDF rats, Example 1","modest, but not statistically significant effects"
same,effect on hyperglycaemia,"[4]; ZDF rats, Example 1","modest, but not statistically significant effects"
same,Plasma Cholesterol,[4]; [6],6.3 ± 0.3 mmol/L
same,Plasma Triglycerides,[4]; [6],4.4 ± 0.6 mmol/L
same,Plasma glucose,[4]; [6],25.0 ± 2.3 mmol/L
same,Mean Systolic BP,"[4]; ZDF rats, LR-90 50 mg/l in drinking water, at 40 weeks of age, tail-cuff, mean ± SEM",144 ± 6 mm Hg
same,reduction of plasma cholesterol,"[4]; vs untreated ZDF rats, p<0.05",~30%
same,reduction of plasma triacylglycerol,"[4]; vs untreated ZDF rats, p<0.05",~55%
